Blank lines part the entries; values can stand above or below the molecule they belong to.
Tests used:
KB [1] = experiment: Antiproliferative activity against human KB cells after 72 hrs by neutral red uptake assay; type: functional, cell-based; settings: Homo sapiens, KB, 72 h
MCF7 [2] = experiment: Antiproliferative activity against doxorubicin-resistant human MCF7 cells after 72 hrs by neutral red uptake assay; type: functional, cell-based; settings: Homo sapiens, MCF7, 72 h
MCF7 [3] = experiment: Antiproliferative activity against wild-type human MCF7 cells after 72 hrs by neutral red uptake assay; type: functional, cell-based; settings: Homo sapiens, MCF7, 72 h
Artemia salina = experiment: Toxicity in brine shrimp; type: functional; settings: read-out: ED50 (the source's name)
A549 [4] = experiment: Antiproliferative activity against human A549 cells after 48 hrs by MTT assay; type: functional, cell-based; settings: A549, 48 h
HeLa [5] = experiment: Antiproliferative activity against human HeLa cells after 24 hrs by MTT assay; type: functional, cell-based
A549 [6] = experiment: Antiproliferative activity against human A549 cells after 24 hrs by MTT assay; type: functional, cell-based; settings: A549, 24 h
HeLa [7] = experiment: Antiproliferative activity against human HeLa cells after 48 hrs by MTT assay; type: functional, cell-based
K562 = experiment: Antiproliferative activity against human K562 cells by MTT assay; type: functional, cell-based
MCF7 [8] = experiment: Antiproliferative activity against human MCF7 cells after 96 hrs by MTT assay; type: functional, cell-based; settings: MCF7, 96 h
SK-MEL-28 = experiment: Antiproliferative activity against human SK-MEL-28 cells after 96 hrs by MTT assay; type: functional, cell-based; settings: SK-MEL-28, 96 h
WIL2-NS = experiment: Antiproliferative activity against human WIL2-NS cells after 96 hrs by MTT assay; type: functional, cell-based
MT4 = experiment: Antiproliferative activity against human MT4 cells after 96 hrs by MTT assay; type: functional, cell-based; settings: MT4, 96 h
CCRF-SB = experiment: Antiproliferative activity against human CCRF-SB cells after 96 hrs by MTT assay; type: functional, cell-based
CCRF-CEM = experiment: Antiproliferative activity against human CCRF-CEM cells after 96 hrs by MTT assay; type: functional, cell-based
[9] = Antiproliferative activity against human SW707 cells after 72 hrs by sulforhodamine B assay; type: functional; settings: SW707, 72 h, read-out: ID50 (the source's name)
[10] = Antiproliferative activity against human HCV29T cells after 72 hrs by sulforhodamine B assay; type: functional; settings: read-out: ID50 (the source's name)
PC-3 = experiment: Antiproliferative activity against human PC3 cells after 24 hrs by MTT assay; type: functional, cell-based; settings: PC-3, 24 h
MCF7 [11] = experiment: Antiproliferative activity against human MCF7 cells after 24 hrs by MTT assay; type: functional, cell-based; settings: MCF7, 24 h
KB [12] = experiment: Antiproliferative activity against wild-type human KB cells after 24 hrs by MTS assay; type: functional, cell-based
KB [13] = experiment: Antiproliferative activity against hydroxyurea-resistant human KB cells after 24 hrs by MTS assay; type: functional, cell-based
HEp-2 = experiment: Antiproliferative activity against human Hep2 cells after 48 hrs by sulforhodamine B assay; type: functional, cell-based; settings: HEp-2, 48 h
HCT-116 [14] = experiment: Antiproliferative activity against human HCT116 cells after 48 hrs by sulforhodamine B assay; type: functional, cell-based; settings: HCT-116, 48 h
HCT-116 [15] = experiment: Selectivity ratio of IC50 for human HCT116 cells to IC50 for human Hep2 cells; type: functional
A2780 [16] = experiment: Antiproliferative activity against human A2780 cells after 72 hrs by MTT assay; type: functional, cell-based; settings: A2780, 72 h
A2780 [17] = experiment: Antiproliferative activity against cisplatin-resistant human A2780 cells after 72 hrs by MTT assay; type: functional, cell-based; settings: A2780, 72 h

Compound: CC(O)C(/N=C1/c2c(O)cccc2C([C@@H]2O[C@H](CO)[C@@H](O)[C@H](O)[C@H]2O)c2cc(CO)cc(O)c21)C(=O)O (stereo partly specified)
EC50 (Artemia salina): 27.6 µM

Compound: CC(/N=C1/c2c(O)cccc2C([C@@H]2O[C@H](CO)[C@@H](O)[C@H](O)[C@H]2O)c2cc(CO)cc(O)c21)C(=O)O (stereo partly specified)
EC50 (Artemia salina): 130 µM

Compound: COc1ccc(/C=N/c2nc3ccccc3[nH]2)cc1OC
IC50 [9]: 154 µM | IC50 [10]: 106 µM

Compound: Cc1ccc2snc(/N=C\c3cccc(Cl)c3)c2c1
IC50 (WIL2-NS): 7 µM | IC50 (MT4): 2 µM | IC50 (CCRF-SB): 4 µM | IC50 (CCRF-CEM): 1.5 µM

Compound: Brc1ccccc1/C=N/c1nc2ccccc2[nH]1
IC50 [9]: 26.3 µM | IC50 [10]: 35.3 µM

Compound: CC(C)C(/N=C1/c2c(O)cccc2C([C@@H]2O[C@H](CO)[C@@H](O)[C@H](O)[C@H]2O)c2cc(CO)cc(O)c21)C(=O)O (stereo partly specified)
EC50 (Artemia salina): 19.1 µM

Compound: COc1ccc(/C=N/c2nc3ccccc3[nH]2)cc1
IC50 [9]: 183 µM | IC50 [10]: 179 µM

Compound: CCC(C)C(/N=C1/c2c(O)cccc2Cc2cc(CO)cc(O)c21)C(=O)O (stereo unspecified)
EC50 (Artemia salina): 246 µM

Compound: Brc1ccc(/C=N/c2nc3ccccc3[nH]2)cc1
IC50 [9]: 33.3 µM | IC50 [10]: 32 µM

Compound: COc1cc(/C=N\c2nsc3ccccc23)ccc1O
IC50 (WIL2-NS): 10 µM | IC50 (MT4): 5 µM | IC50 (CCRF-SB): 4 µM | IC50 (CCRF-CEM): 2.5 µM

Compound: Cc1cc(O)c2c(c1)Cc1cccc(O)c1/C2=N/C(CS)C(=O)O (stereo unspecified)
EC50 (Artemia salina): 423 µM

Compound: CC(C)C(/N=C1/c2c(O)cccc2Cc2cc(CO)cc(O)c21)C(=O)O (stereo unspecified)
EC50 (Artemia salina): 145 µM

Compound: O=C(O)C/N=C1/c2c(O)cccc2Cc2cc(CO)cc(O)c21
EC50 (Artemia salina): 1030 µM

Compound: CC(/N=C1/c2c(O)cccc2Cc2cc(CO)cc(O)c21)C(=O)O (stereo unspecified)
EC50 (Artemia salina): 339 µM

More lines, main results first:

IC50 (KB [1]): 0.5 µM | IC50 (MCF7 [2]): 0.1 µM | IC50 (MCF7 [3]): 0.4 µM
Compound: C/N=C/c1c(O)c(O)c(C(C)C)c2c1C(=O)C(C1=C(C)C(=O)c3c(c(/C=N/C)c(O)c(O)c3C(C)C)C1=O)=C(C)C2=O

IC50 (A549 [4]): 1.6 µM | IC50 (HeLa [5]): 165 µM | IC50 (A549 [6]): 2 µM | IC50 (HeLa [7]): 123 µM
Compound: O=[N+]([O-])c1ccc(/C=N/c2ccccc2)cc1

IC50 (K562): 35 µM
Compound: CSC(=S)N/N=C(\c1ccccc1)c1ccccn1

IC50 (MCF7 [8]): 10 µM | IC50 (SK-MEL-28): 6 µM | IC50 (CCRF-SB): 5 µM | IC50 (CCRF-CEM): 2 µM
Compound: O=[N+]([O-])c1ccc(/C=N\c2nsc3ccccc23)o1
IC50 (WIL2-NS): 6.5 µM | IC50 (MT4): 2 µM

IC50 (A549 [4]): 138 µM | IC50 (HeLa [5]): 1.9 µM | IC50 (A549 [6]): 161 µM | IC50 (HeLa [7]): 0.9 µM
Compound: FC(F)(F)c1ccc(/C=N/c2ccccc2)cc1

IC50 (CCRF-SB): 5 µM | IC50 (CCRF-CEM): 2 µM
Compound: COc1cccc(/C=N\c2nsc3ccccc23)c1O
IC50 (WIL2-NS): 10 µM | IC50 (MT4): 5 µM

IC50 (PC-3): 522 µM | IC50 (MCF7 [11]): 715 µM
Compound: Oc1ccccc1/C=N\CCn1cccn1

IC50 (KB [12]): 37.5 µM | IC50 (KB [13]): 15.3 µM
Compound: O=C(NO)N/N=C/c1ccc(O)c(O)c1O

IC50 (CCRF-SB): 3 µM | IC50 (CCRF-CEM): 2 µM
Compound: Cc1ccc2snc(/N=C\c3ccccc3O)c2c1
IC50 (WIL2-NS): 6 µM | IC50 (MT4): 5 µM

IC50 (KB [12]): 27.2 µM | IC50 (KB [13]): 28 µM
Compound: O=C(NO)N/N=C/c1ccc([N+](=O)[O-])s1

IC50 (CCRF-SB): 4 µM | IC50 (CCRF-CEM): 2 µM
Compound: Clc1cccc(/C=N\c2nsc3ccccc23)c1
IC50 (WIL2-NS): 10 µM | IC50 (MT4): 6 µM

IC50 (HCT-116 [14]): 9.1 µM
Compound: Oc1ccc(Br)cc1/C=N/Cc1cccs1
IC50 (HEp-2): 3.8 µM | Ratio IC50 (HCT-116 [15]): >2

IC50 (A2780 [16]): 27 µM | IC50 (PC-3): 39 µM | IC50 (A2780 [17]): 26 µM | IC50 (MCF7 [11]): 32 µM
Compound: Oc1c(Cl)cc(Cl)cc1/C=N\CCn1cccn1

IC50 (A549 [4]): 177 µM | IC50 (HeLa [5]): 42.2 µM | IC50 (A549 [6]): 207 µM | IC50 (HeLa [7]): 24.9 µM
Compound: C(=N\c1ccccc1)/c1ccc2c(c1)OCO2

— ChEMBL document CHEMBL2396568, “An insight into synthetic Schiff bases revealing antiproliferative activities in vitro” (Bioorg Med Chem, 2013)
